Data on 14 molecules can be found in US11944624B2, “Peptide and small molecule agonists of EphA and their uses” (CASE WESTERN RESERVE UNIVERSITY, priority 2017, dated 2024).

Entries after “also recorded” stand apart in the source; their conditions may differ.

The target of assay [1] is T1, EphA2 (Homo sapiens, UniProt P29317). Put plainly: EphA2 activation in MDA-MB-231-A2 cells (phosphorylated/total EphA2, Example 2). Particulars: MDA-MB-231-A2 cells, 2, 10 and 50 μM, 30 min. Also noted: expressed in transfected cells; host or cells: MDA-MB-231 (MDA-231-A2 / MDA-MB-231-A2), puromycin selected. Format: cell-based. Here is the method:
To evaluate the compounds, we utilized a MDA-MB-231 breast cancer cell line which overexpresses EphA2 receptor (MDA-MB-231-A2). The ratio of phosphorylated EphA2 protein over total EphA2 protein was measured after treatment with the various compounds as the readout for receptor activation. All the compounds were examined with doses of 2, 10, and 50 μM, and we used 50 μM Doxazosin and 0.5% DMSO as the positive and negative control, respectively (FIG. 27). […] Inspired by the dimer design, we also generated dimer structure based on the piperazine ring as the core as illustrated by compounds 25 and 26.
MDA-MB-231 EphA2-overexpressing cells were plated in 12-well dishes at a density of 100,000 cells/well and grown for 24 hours prior to stimulation with appropriate compounds and ephrins for 30 min and 10 min, respectively. Compounds were prepared in DMSO at 200 times the final concentrations and 0.5% DMSO was used as vehicle control. Following treatment, cells were washed and lysed in modified RIPA Buffer (20 mM Tris-HCl pH 7.4, 20 mM NaF, 150 mM NaCl, 10% glycerol, 0.1% SDS, 0.5% DCA, 2 mM EDTA, 1% Triton X-100, 2 mM Na3VO4, and protease inhibitors, including 1 mM phenylmethylsulphonyl fluoride, and 2 μg/ml each of aprotinin and leupeptin) for 20 min, followed by immunoprecipitation. For immunoprecipitation, lysates were combined with 10 μg of ephrin-A1-Fc and 10-15 μl of Gamma-Bind Protein G beads (GE Healthcare Bioscience, Pittsburgh, PA) and rotated for 3 hours at 4° C. 10 μg of human unconjugated Fc was used as a negative control. Beads were pelleted at 9,000 rpm for 2 min at 4° C., and washed twice with 1 ml of IP Wash Buffer (20 mM Tris, pH 7.4, 10% glycerol, 50 mM NaCl, 0.2% Triton X-100, 0.5 mM Na3VO4, 0.5 mM PMSF). All wash buffer was removed and beads were resuspended in 25 μl of 4× LDS Loading Buffer (Thermo Fisher, Grand Island, NY) with 4 μl of 10× Bolt Sample Reducing Agent (Thermo Fisher), followed by Western Blotting. Samples were boiled 5 min and run on 4-12% Bis-Tris Plus gels (Thermo Fisher), followed by transfer to Immobilon-P PVDF membranes (Millipore, Billerica, MA). Membranes were blocked 1 hr at room temperature in 3% BSA in TBS containing 0.05% Tween-20 (TBS-T) followed by overnight incubation with pEphA/B (1:500) and EphA2 (Santa Cruz) (1:1000) primary antibodies. Membranes were washed in TBS-T and incubated with goat anti-rabbit-HRP (1:5000) secondary antibody 1 hr at room temperature, followed by washing and developing with Luminol Reagent (Santa Cruz). Band intensities were quantified using Quantity One software (Bio-Rad, Hercules, CA).

The subject of a further assay is MDA-MB-231 cells. The experiment in a line: Clonogenic (colony formation) assay. Format: cell-based. To be noted: 0.08-10 μM, 14 days. Here is the method: MDA-MB-231 cells (1000 cells/well) were seeded in 12-well plates and cultured for 24 h, followed by treatment with various concentrations of the Doxazosin analogs (0, 0.08, 0.4, 2 and 10 μM) in 0.5% DMSO for 14 days. After washing with PBS, colonies were fixed in 4% paraformaldehyde in PBS, washed in 20% methanol, and stained with 0.5% crystal violet.

The target in assay [2] is T2, rat α1a adrenergic receptor (Rattus norvegicus, UniProt P43140).
T2 construct: Eurofins Panlabs Taiwan, Ltd. (contract assay)
T2 sequence (P43140 1-466): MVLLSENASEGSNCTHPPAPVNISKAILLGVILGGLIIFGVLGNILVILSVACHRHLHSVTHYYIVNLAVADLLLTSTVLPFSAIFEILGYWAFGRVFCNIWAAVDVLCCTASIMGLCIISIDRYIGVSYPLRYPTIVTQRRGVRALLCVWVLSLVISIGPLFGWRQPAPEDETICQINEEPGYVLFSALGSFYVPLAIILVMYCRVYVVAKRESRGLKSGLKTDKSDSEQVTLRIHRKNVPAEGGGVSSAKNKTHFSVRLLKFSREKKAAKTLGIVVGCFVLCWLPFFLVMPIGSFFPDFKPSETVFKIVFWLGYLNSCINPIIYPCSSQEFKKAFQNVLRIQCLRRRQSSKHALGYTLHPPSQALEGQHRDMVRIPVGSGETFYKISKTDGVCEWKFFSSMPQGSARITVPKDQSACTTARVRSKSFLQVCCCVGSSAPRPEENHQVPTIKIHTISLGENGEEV
Put plainly: Adrenoceptor binding, [3H]-prazosin competition. Particulars: [3H]-prazosin 0.25 nM, triplicate, mean±SD; read-out: IC50, α-adrenoceptor binding. Here is the method: Analysis of Doxazosin and analog binding to rat α1a adrenergic receptor was performed by Eurofins Panlabs Taiwan, Ltd. (Taiwan). [^3H]-prazosin at 0.25 nM was used as the radioligand. […] Non-specific binding was defined by use of 10 μM phentolamine. Incubations were terminated by vacuum filtration over 0.1% PEI pretreated glass fiber filters and filters were washed for 10 s with ice cold 0.1M NaCl and radioactivity retained on the filters was determined by liquid scintillation spectrometry. IC50 values were determined by a non-linear regression analysis using GraphPad Prism v.5 (GraphPad).

The target of assay [3] is T1, EphA2. Put plainly: EphA2 internalization in MDA-MB-231 cells (immunofluorescence, Example 2). Format: cell-based. Also noted: expressed in transfected cells; host or cells: MDA-MB-231 (MDA-231-A2 / MDA-MB-231-A2), puromycin selected. Particulars: 1 hr, doses 0.4, 2, 10, 50 μM. On the procedure:
This was performed using the MDA-MB-231 cell line. This cell line spreads well in culture, thereby facilitating immunofluorescence detection of cell surface and intracellular EphA2 (FIG. 28). […] MDA-MB-231 cells were plated in 24-well plates on 10 mm square coverslips coated with 10 μg/ml fibronectin and incubated 24-48 hrs before treatment with 50 μM Doxazosin and various doses of compound 27 (0.4, 2, 10, 50 μM) in 0.5% DMSO for 1 hr. As another positive control, cells were treated with 2 μg/ml ephrin-A1-Fc. Cells were then washed with PBS and fixed with 4% paraformaldehyde (Electron Microscopy Sciences, Hatfield, PA) on ice for 10 min, followed by washing and permeabilization with 0.4% NP-40 for 10 min on ice. […] Cells were then incubated in primary mouse EphA2 antibody (D7, 1:100) in 0.1% BSA/PBS for 1 hr at room temperature, washed in PBS and BSA/PBS, followed by incubation in secondary donkey anti-mouse Alexa Fluor 488 antibody (1:300) in BSA/PBS for 30 min at room temperature. Cells were washed in PBS and BSA/PBS, followed by mounting in DAPI Mounting Medium (Electron Microscopy Sciences). Images were taken with a Leica microscope.

T1 sequence (P29317 24-976): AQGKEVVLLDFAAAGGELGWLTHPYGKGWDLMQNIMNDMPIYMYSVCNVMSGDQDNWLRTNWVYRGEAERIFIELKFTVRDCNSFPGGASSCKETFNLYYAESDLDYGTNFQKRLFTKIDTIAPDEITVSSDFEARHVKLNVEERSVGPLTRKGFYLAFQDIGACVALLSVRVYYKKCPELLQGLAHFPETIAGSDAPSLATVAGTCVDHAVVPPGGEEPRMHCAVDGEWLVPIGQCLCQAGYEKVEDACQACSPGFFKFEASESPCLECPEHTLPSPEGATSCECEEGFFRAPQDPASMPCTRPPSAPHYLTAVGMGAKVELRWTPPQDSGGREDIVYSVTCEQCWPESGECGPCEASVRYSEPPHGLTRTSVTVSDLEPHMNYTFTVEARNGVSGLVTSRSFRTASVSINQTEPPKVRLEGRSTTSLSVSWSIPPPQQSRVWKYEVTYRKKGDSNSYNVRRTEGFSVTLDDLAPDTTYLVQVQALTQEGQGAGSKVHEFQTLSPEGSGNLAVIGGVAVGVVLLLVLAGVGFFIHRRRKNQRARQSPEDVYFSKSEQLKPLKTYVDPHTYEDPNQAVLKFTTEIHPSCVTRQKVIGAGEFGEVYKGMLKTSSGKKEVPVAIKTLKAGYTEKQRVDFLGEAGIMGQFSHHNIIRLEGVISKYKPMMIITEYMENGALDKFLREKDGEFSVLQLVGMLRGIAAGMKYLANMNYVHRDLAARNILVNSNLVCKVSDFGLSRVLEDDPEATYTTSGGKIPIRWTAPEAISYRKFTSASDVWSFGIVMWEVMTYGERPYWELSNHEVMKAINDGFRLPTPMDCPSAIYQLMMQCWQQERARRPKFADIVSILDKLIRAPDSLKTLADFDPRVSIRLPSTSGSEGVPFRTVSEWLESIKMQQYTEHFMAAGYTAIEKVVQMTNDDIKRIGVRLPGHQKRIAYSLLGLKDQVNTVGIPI

Regarding `COc1cc2nc(N3CCN(C(=O)c4ccc5ccccc5c4)CC3)nc(N)c2cc1OC` [Compound 1, (4-(4-amino-6,7-dimethoxyquinazolin-2-yl)piperazin-1-yl)(naphthalen-2-yl)methanone], the “EphA2 activation compared to 50 μM Doxazosin” value at EphA2 [1] is given as “higher activity than compound 3; also recorded: did not show a much higher activity than the lead compound Doxazosin”.

`COc1cc2nc(N3CCN(C(=O)c4cccc(-c5ccccc5)c4)CC3)nc(N)c2cc1OC` [Compound 2, [1,1′-biphenyl]-3-yl(4-(4-amino-6,7-dimethoxyquinazolin-2-yl)piperazin-1-yl)methanone]: at EphA2 [1], the “EphA2 activation compared to 50 μM Doxazosin” value is “higher activity than compound 3; also recorded: did not show a much higher activity than the lead compound Doxazosin”.

As to `COc1cc2nc(N3CCN(C(=O)c4ccc(Cl)c([N+](=O)[O-])c4)CC3)nc(N)c2cc1OC` [Compound 13, (4-(4-amino-6,7-dimethoxyquinazolin-2-yl)piperazin-1-yl)(4-chloro-3-nitrophenyl)methanone], the “EphA2 activation compared to 50 μM Doxazosin” value at EphA2 [1] is listed as “decreases the activity”.

As to `CCCCCC(=O)N1CCN(c2nc(N)c3cc(OC)c(OC)cc3n2)CC1` [Compound 23, 1-(4-(4-amino-6,7-dimethoxyquinazolin-2-yl)piperazin-1-yl)hexan-1-one], the “inhibition of colony formation” value in the assay with MDA-MB-231 cells is “moderate activity to inhibit the colony formation”. Also, the “EphA2 activation compared to 50 μM Doxazosin” value at EphA2 [1] was “slightly decreased activity”.

Consider `COc1cc2nc(N3CCN(C(=O)Cc4ccc(OCc5ccccc5)cc4)CC3)nc(N)c2cc1OC` [Compound 24, 1-(4-(4-amino-6,7-dimethoxyquinazolin-2-yl)piperazin-1-yl)-2-(4-(benzyloxy)phenyl)ethanone], for which the “inhibition of colony formation” value with MDA-MB-231 cells is given as “slightly weaker activity compared to compound 27; also recorded: inhibit the colony formation”. For the same molecule, the IC50 – broadly, the concentration at which inhibition is half-maximal – in assay [2] was 4.28 ± 3.1 nM. For the same molecule, the “EphA2 activation compared to 50 μM Doxazosin” value at EphA2 [1] is reported as “potent EphA2 activation; also recorded: improved EphA2 activation compared to Doxazosin”.

As to `COc1ccc(C(=O)N2CCN(C(=O)c3ccc(OC)cc3)CC2)cc1` [Compound 25, piperazine-1,4-diylbis((4-methoxyphenyl)methanone)], the “EphA2 activation compared to 50 μM Doxazosin” value on EphA2 [1] was “significantly decreased activity”.

Turning to `CSc1ccc(C(=O)N2CCN(C(=O)c3ccc(SC)cc3)CC2)cc1` [Compound 26, piperazine-1,4-diylbis((4-(methylthio)phenyl)methanone)], the “EphA2 activation compared to 50 μM Doxazosin” value on EphA2 [1] is listed as “significantly decreased activity”.

For `COc1cc2nc(N3CCN(C(=O)CCCCCCCCCCC(=O)N4CCN(c5nc(N)c6cc(OC)c(OC)cc6n5)CC4)CC3)nc(N)c2cc1OC` [Compound 27, 1,12-bis(4-(4-amino-6,7-dimethoxyquinazolin-2-yl)piperazin-1-yl)dodecane-1,12-dione], the “inhibition of colony formation” value in the assay on MDA-MB-231 cells was “inhibited colony formation even at nanomolar concentrations; also recorded: inhibit the colony formation; also recorded: inhibits cancer cell colony formation”. In assay [2], the IC50 came to 2.5 ± 1.62 nM. Besides, the “EphA2 activation compared to 50 μM Doxazosin” value at EphA2 [1] is recorded as “superior activity within the new compound pool; also recorded: significantly increased activity compared to Doxazosin; also recorded: the most active one in the SAR study; also recorded: improved EphA2 activation compared to Doxazosin”. Also, the “concentration at which EphA2 internalization happened” value on EphA2 [3] stood at 0.4 µM.

As for `COc1cc2nc(N3CCN(C(=O)CCCCC(=O)N4CCN(c5nc(N)c6cc(OC)c(OC)cc6n5)CC4)CC3)nc(N)c2cc1OC` [Compound 28, 1,6-bis(4-(4-amino-6,7-dimethoxyquinazolin-2-yl)piperazin-1-yl)hexane-1,6-dione], the “EphA2 activation compared to 50 μM Doxazosin” value on EphA2 [1] was “does not show any activity to activate EphA2”.

With `COc1cc2nc(N3CCN(C(=O)C4COc5ccccc5O4)CC3)nc(NC(C)=O)c2cc1OC` (centres unmarked) [Compound 29, N-(2-(4-(2,3-dihydrobenzo[b][1,4]dioxine-2-carbonyl)piperazin-1-yl)-6,7-dimethoxyquinazolin-4-yl)acetamide], the “EphA2 activation compared to 50 μM Doxazosin” value at EphA2 [1] was “significantly diminishes the activity”.

For `COc1cc2nc(N3CCN(C(=O)Cc4ccc(OCc5ccccc5)cc4)CC3)nc(NC(C)=O)c2cc1OC` [Compound 30, N-(2-(4-(2-(4-(benzyloxy)phenyl)acetyl)piperazin-1-yl)-6,7-dimethoxyquinazolin-4-yl)acetamide], on EphA2 [1], the “EphA2 activation compared to 50 μM Doxazosin” value was “significantly diminishes the activity”.

In the case of `COc1cc2nc(N3CCN(C(=O)Cc4ccc(OCc5ccccc5)cc4)CC3)nc(N3CCCCC3)c2cc1OC` [Compound 31, 2-(4-(benzyloxy)phenyl)-1-(4-(6,7-dimethoxy-4-(piperidin-1-yl)quinazolin-2-yl)piperazin-1-yl)ethanone], on EphA2 [1], the “EphA2 activation compared to 50 μM Doxazosin” value is reported as “harm the EphA2 activation”.

Turning to `COc1cc2nc(N3CCN(C(=O)Cc4ccc(OCc5ccccc5)cc4)CC3)nc(N3CCCC3)c2cc1OC` [Compound 32, 2-(4-(benzyloxy)phenyl)-1-(4-(6,7-dimethoxy-4-(pyrrolidin-1-yl)quinazolin-2-yl)piperazin-1-yl)ethanone], the “EphA2 activation compared to 50 μM Doxazosin” value at EphA2 [1] is “harm the EphA2 activation”.

Regarding `CCOc1cc2nc(N3CCN(C(=O)Cc4ccc(OCc5ccccc5)cc4)CC3)nc(N)c2cc1OCC` [Compound 33, 1-(4-(4-amino-6,7-diethoxyquinazolin-2-yl)piperazin-1-yl)-2-(4-(benzyloxy)phenyl)ethanone], the “EphA2 activation compared to 50 μM Doxazosin” value on EphA2 [1] was “diminishes the activity”.
